Results: publication PMC10096064, “Naphth[1,2-d]imidazoles Bioactive from β-Lapachone: Fluorescent Probes and Cytotoxic Agents to Cancer Cells” (Molecules, 2023)
“Also recorded” adds a separate entry of the source. Read-outs that look alike come from different tables or passages of the source. Marks after values point to notes of the source that are not given here.

Columns and labels:
[1] = cited from earlier work
[2] = Fluorescence emission spectrum and Stokes shift; assay type: physicochemical; settings: for fluorescence emission intensity / λemis (emission wavelength): excitation at 345 nm, 20 μM; for λemis (emission wavelength): solvent per compound: IM1, IM3, IM4, IM5 CH2Cl2, IM2 DMSO, IM6 CH3OH, IM7 hexane, DAPI H2O; for ΔST (Stokes shift): difference between absorption and emission wavelengths, solvent per compound as in Table 1
Method: The stock solutions were diluted to a concentration of 20 µM, and readings used the excitation wavelength of 345 nm for all compounds. […]

HL-60 = assay: MTT cytotoxicity assay, human promyelocytic leukemia HL-60; assay type: cell-based; settings: for IC50: Homo sapiens, HL-60, 72 h exposure, MTT, 95% confidence interval in brackets; for SI HL-60 (selectivity index): ratio IC50 L929 / IC50 HL-60
Method: (§1) The cytotoxic activity of the naphth[1,2-d]imidazoles IM1–IM7 was assessed through colorimetric MTT assay. The ability of these compounds to inhibit cell growth against human glioblastoma (SNB-19), human colorectal carcinoma (HCT-116), and human promyelocytic leukemia (HL-60) cell lines was evaluated. The IC50 was determined for those compounds, returning a percentage inhibition of cell growth above 75% in at least two tested cell lines. […] Doxorubicin was used as the positive control, and cytotoxic activities were expressed as IC50 for all the naphth[1,2-d]imidazoles in Table 2.
(§2) Brain tumor (SNB-19), human colorectal carcinoma (HCT-116), and human promyelocytic leukemia (HL-60) cells were obtained from the National Cancer Institute (NCI) (Bethesda, MD, USA). The L929 cells (mouse fibroblast L cells NCTC clone 929) were purchased from the American Type Culture Collection (Manassas, VA, USA). The cells were grown on RPMI 1640 medium supplemented with 10% fetal bovine serum and 1% antibiotics (penicillin/streptomycin) at 37 °C with 5% CO2.
(§3) Cytotoxic potential of the naphth[1,2-d]imidazoles IM1–IM7 was assessed after 72 h of exposure to the tumor cell lines of human SNB-19, HCT-116, HL-60, and normal cell line L929. Cells were plated in 96-well plates (0.7 × 10^5 cells/well for SNB-19, 0.3 × 10^6 cells/well for HCT-116, and 0.3 × 10^6 cells/well for HL-60). Compounds were dissolved with DMSO at concentrations in the 0.078–10 μg.mL^−1 range. Doxorubicin (0.001–1.10 μM) was used as the positive control, and negative control groups received the same amount of vehicle (DMSO). The cell viability was determined by the reduction of the yellow dye 3-(4,5-dimethyl-2-thiazol)-2,5-diphenyl-2H-tetrazolium bromide (MTT) to a blue formazan product. At the end of the incubation time (69 h), the plates were centrifuged, and the medium was replaced with fresh medium (200 μL) containing 0.5 mg/mL of MTT. Three hours later, the MTT formazan product was dissolved in DMSO (150 μL), and the absorbance was measured using a multi-plate reader (Spectra Count, Packard, ON, Canada). The drug effect was quantified as the percentage of control absorbance of the reduced dye at 550 nm. All experiments were performed in three independent assays, and the half maximal inhibitory concentration (IC50) and their 95% confidence intervals were achieved by nonlinear regression.

SNB-19 = assay: MTT cytotoxicity assay, human glioblastoma SNB-19; assay type: cell-based; settings: for IC50: Homo sapiens, SNB-19, 72 h exposure, MTT, 95% confidence interval in brackets; for SI SNB-19 (selectivity index): ratio IC50 L929 / IC50 SNB-19
Method: as §1, §2, §3

L929 = assay: MTT cytotoxicity assay, nontumor murine fibroblast L929; assay type: cell-based; settings: Mus musculus, 72 h exposure
Method: as §1, §2, §3

HCT-116 = assay: MTT cytotoxicity assay, human colorectal carcinoma HCT-116; assay type: cell-based; settings: for IC50: Homo sapiens, HCT-116, 72 h exposure, MTT, 95% confidence interval in brackets; for SI HCT-116 (selectivity index): ratio IC50 L929 / IC50 HCT-116
Method: as §1, §2, §3

[3] = UV-vis absorption spectra and molar absorptivity coefficient; assay type: physicochemical; settings: 20 μM
Method: A stock solution in dichloromethane (CH2Cl2) of each compound was prepared at a concentration of 4000 µM. From the stock solution, solutions were prepared at a concentration of 20 µM of each compound in four different solvents: hexane, CH2Cl2, dimethyl sulfoxide (DMSO), and methanol (CH3OH). Then, measurement in the range of 190 to 800 nm was performed, with the wavelengths of maximum absorption (λmax) of the compounds in the different solvents shown in Table S1 and Figure S8.
The molar absorptivity coefficient (εAbs) was determined using an equation applied by Lambert–Beer (εAbs = A/LxC, where A—maximum absorbance; L—the optical path of the cuvette used (1 cm); and C—concentration of the analyzed sample in M).

[4] = design: method as in PMID 25995830, PMID 20460521; settings: drawback limiting clinical applications; cited from earlier work
[5] = solvent per compound: IM1, IM3, IM4, IM5 CH2Cl2, IM2 DMSO, IM6 CH3OH, IM7 hexane

Compound | λmax ([1]; H2O, ref Farahat et al. (2017) [32]) | λabs ([1]; general characteristic of DAPI stated in text, ref not given) [nm] | fluorescence emission intensity [2] | λemis (emission wavelength) [2] [nm] | IC50 (HL-60) [µM] | SI HL-60 (selectivity index) (HL-60) | IC50 (SNB-19) [µM] | SI SNB-19 (selectivity index) (SNB-19) | IC50 (L929) [µM] | IC50 (HCT-116) [µM] | SI HCT-116 (selectivity index) (HCT-116) | εAbs (molar absorptivity coefficient) [3, 5] | λmax [3, 5] [nm] | melting point [°C] | ΔST (Stokes shift) [2] [nm] | εAbs (molar absorptivity coefficient) [3] [M⁻¹ cm⁻¹] | cell growth inhibition / cytotoxicity (in words) (HL-60; HL-60, MTT, IC50 not calculated) | cell growth inhibition / cytotoxicity (in words) (SNB-19; SNB-19, MTT, IC50 not calculated) | cell growth inhibition / cytotoxicity (in words) (HCT-116; HCT-116, MTT, IC50 not calculated) | water solubility [4]
N=C(N)c1ccc(-c2cc3ccc(C(=N)N)cc3[nH]2)cc1 [DAPI, 4′,6-diamidino-2-phenylindole, reference compound] | 343 ^d nm | 340 | 1.13 × 10^5 au | 452 | – | – | – | – | – | – | – | – | – | – | – | – | – | – | – | –
COc1cccc2c1C(=O)c1c(O)c3c(c(O)c1C2=O)C[C@@](O)(C(=O)CO)C[C@@H]3O[C@H]1C[C@H](N)[C@H](O)[C@H](C)O1 [Doxorubicin, reference compound] | – | – | – | – | 0.04 | 79.00 | 2.21 | 1.43 | 3.16 | 0.2 | 15.80 | – | – | – | – | – | – | – | – | –
CC1(C)CCc2c(c3ccccc3c3nc[nH]c23)O1 [IM1, 4,5-dihydro-6,6-dimethyl-6H-2-pyran[b-4,3]naphth[1,2-d]imidazole] | – | – | 6.90 × 10^4 au | 366 | 24.2 | 7.68 | 46.4 | 4.00 | 186 | 62.1 | 3.00 | 0.61 10^4 M^−1cm^−1 | 316 | 255 to 259 | 50 | – | – | – | – | –
CC1(C)CCc2c(c3ccccc3c3nc(-c4ccccc4)[nH]c23)O1 [IM2, 4,5-dihydro-6,6-dimethyl-6H-2-(phenyl)-pyran[b-4,3]naphth[1,2-d]imidazole] | – | – | 2.49 × 10^6 au | 402 | 29.9 | 3.50 | 27 | 3.89 | 105 | 21.7 | 4.83 | 2.43 10^4 M^−1cm^−1 | 342 | 278 to 279 | 60 | 24300 | – | – | – | –
CC1(C)CCc2c(c3ccccc3c3nc(-c4cccc5ccccc45)[nH]c23)O1 [IM3, 4,5-dihydro-6,6-dimethyl-6H-2-(naphthalenyl)-pyran[b-4,3]naphth[1,2-d]imidazole] | – | – | 1.41 × 10^6 au | 457 | – | – | – | – | – | – | – | 1.57 10^4 M^−1cm^−1 | 354 | – | 103 | 15700 | low growth inhibition; also recorded: low cytotoxicity | low growth inhibition; also recorded: low cytotoxicity | low growth inhibition; also recorded: low cytotoxicity | –
CC1(C)CCc2c(c3ccccc3c3nc(-c4ccc(O)cc4)[nH]c23)O1 [IM4, 4,5-dihydro-6,6-dimethyl-6H-2-(4-hidroxyphenyl)-pyran[b-4,3]naphth[1,2-d]imidazole] | – | – | 1.36 × 10^6 au | 393 | 8.71 | >41.70 | 31.9 | >11.38 | > 363 | 23 | >15.76 | 1.48 10^4 M^−1cm^−1 | 344 | – | 49 | 14800 | – | – | – | –
CN(C)c1ccc(-c2nc3c([nH]2)c2c(c4ccccc43)OC(C)(C)CC2)cc1 [IM5, 4,5-dihydro-6,6-dimethyl-6H-2-(4-dimethylaminophenyl)-pyran[b-4,3]naphth[1,2-d]imidazole] | – | – | 7.04 × 10^5 au | 422 | 12.3 | 4.28 | 21.1 | 2.51 | 52.8 | 44.1 | 1.20 | 2.71 10^4 M^−1cm^−1 | 368 | 182 to 184 | 54 | 27100 | – | – | – | –
CC1(C)CCc2c(c3ccccc3c3nc(-c4ccc([N+](=O)[O-])cc4)[nH]c23)O1 [IM6, 4,5-dihydro-6,6-dimethyl-6H-2-(4-nitrophenyl)-pyran[b-4,3]naphth[1,2-d]imidazole] | – | – | – | 391 | 13.7 | 11.09 | 22.3 | 6.81 | 152 | 21.1 | 7.18 | 1.85 10^4 M^−1cm^−1 | 411 | 259 to 260 | – | – | – | – | – | –
CC1(C)CCc2c(c3ccccc3c3nc(-c4ccccc4[N+](=O)[O-])[nH]c23)O1 [IM7, 4,5-dihydro-6,6-dimethyl-6H-2-(2-nitrophenyl)-pyran[b-4,3]naphth[1,2-d]imidazole] | – | – | – | 385 | 14.9 | – | > 67 | – | – | 35.1 | – | 1.35 10^4 M^−1cm^−1 | 337 | 139 to 141 | 48 | – | – | – | – | –
CC1(C)CCC2=C(O1)c1ccccc1C(=O)C2=O [β-lapachone, β-Lapachone] | – | – | – | – | – | – | – | – | – | – | – | – | – | – | – | – | – | – | – | low
